# Laboratory results reported in US7435834B2, “2-thia-dibenzoazulenes as inhibitors of tumour necrosis factor production and intermediates for the preparation thereof” (GlaxoSmithKline Istrazivacki Center Zagreb D.O.O., priority 2002, dated 2008).
# System: TNF-α and IL-1 secretion
# Experiment: investigated assays, not specified which (TNF-α/IL-1 secretion in human PBMC and mouse peritoneal macrophages in vitro, LPS-induced TNF-α/IL-1 secretion in mice, writhing assay, LPS-induced shock in mice)
# Settings: assays not named; active means: IC50 20 μM or lower (human PBMC), IC50 10 μM or lower (mouse macrophages), 30% or more TNF-α inhibition at 10 mg/kg, analgetic activity as acetylsalicylic acid or better, survival 40% or more at 30 mg/kg
# Protocol: The inhibitory action of the present compounds upon TNF-α and IL-1 secretion was determined by the following in vitro and in vivo experiments:
# Determination of TNF-α and IL-1 Secretion in Human Peripheral Blood Mononuclear Cells in vitro
# Human peripheral blood mononuclear cells (PBMC) were prepared from heparinized whole blood after separating PBMC on Ficoll-Paque™Plus (Amersham-Pharmacia). […] The IL-1 level was determined in an assay under the same conditions and with the same number of cells and the same concentration of stimuli stimulus by ELISA procedure (R&D Systems). The percentage of inhibition of TNF-α or IL-1 production was calculated by the equation: % inhibition=[1−(TS−NC)/(PC−NC)]*100. […]
# In order to obtain peritoneal macrophages, Balb/C mouse strain males, age 8 to 12 weeks, were injected i.p. with 300 μg of zymosan (SIGMA) dissolved in a phosphate buffer (PBS) in a total volume of 0.1 ml/mouse. […] The TNF-α level in the cell supernatant was determined by ELISA procedure (R&D Systems, Biosource). The IL-1 level was determined in an assay identical to the assay for TNF-α by ELISA procedure (R&D Systems). The percentage of inhibition of TNF-α or IL-1 production was calculated by the equation: % inhibition=[1−(TS−NC)/(PC−NC)]*100. […]
smiles,measurement,value
"O=Cc1scc2c1-c1ccccc1Sc1ccccc1-2 [Example 14, 2,8-Dithia-dibenzo[e,h]azulene-1-carbaldehyde]",activity in investigated assays,activity in at least two investigated assays
